Measurements: patent US20140154721A1, “Cellulase Assay” (Megazyme IP Limited, priority 2012, published 2014)
“Also recorded” adds a separate entry of the source.

Key:
[1] = test system: cellulase from Trichoderma longibrachiatum; assay: Cellulase assay: release of C1PNP/PNP (absorbance 400 nm) from substrates, with and without β-glucosidase; assay type: biochemical; settings: 40° C., pH 4.5; for sensitivity of the assay (rate of release of C1PNP) in the presence vs absence of β-glucosidase: absorbance 400 nm vs. time, FIGS. 3a-3b
Description: FIGS. 3a-3b are graphs of absorbance (400 nm) vs. time, for the action of a cellulase from Trichoderma longibrachiatum on. […] In contrast, for BC1PNP-G3 (3b) the endo-acting Trichoderma cellulase cleaves the glycosidic bond either between two glucosyl units or between the bond between the terminal glucosyl unit and C1PNP releasing an end-blocked cello-oligosaccharide and a non-blocked C1PNP-cello-oligosaccharide fragment, or free C1PNP. The β-glucosidase in the assay mixture immediately hydrolyses the non-blocked C1PNP-cello-oligosaccharide released, giving D-glucose and free C1PNP.
FIG. 4 is a graph of absorbance (400 nm) vs. time, for the action of a cellulase from Trichoderma longibrachiatum (1500 milli-International Units on CMC-4M per assay) on p-nitrophenyl cellobiose (PNP-G2), 2-chloro-4-nitrophenyl cellobiose (C1PNP-G2), end-blocked p-nitrophenyl cellobiose (BPNP-G2) and end-blocked 2-chloro-4-nitrophenyl cellobiose (BC1PNP-G2) in the absence of added β-glucosidase at 40° C. and pH 4.5 using an assay of the invention (embodiment Two).
(§1) Prepare substrate solution by dissolving end-blocked p-nitrophenyl cello-oligosaccharides or end-blocked 2-Cl-4-nitrophenyl cello-oligosaccharide (DP 2, 3 or 4) in 2 mL of dimethyl sulphoxide to obtain a concentration of 12.5 mM. Cool this solution in ice and add 3 mL of 170 mM potassium chloride solution with mixing, to give a final substrate concentration of 5 mM. Prepare this solution fresh before use, or warm to 40° C. before use to ensure complete dissolution.
Add an aliquot (0.1 mL) of the substrate solution to the bottom of a 16×120 mm glass test tube, followed by 0.05 mL of pure β-glucosidase (Second embodiment only). Incubate tubes for 2 min at the selected reaction temperature and initiate the reaction by adding 0.1 mL of sample solution containing cellulase in 200 mM buffer solution of the desired pH (usually in the range of 4.5 to 8.0). […] Mix the tube contents and measure the absorbance at 400 nm against a reaction blank.

[2] = test system: cellulase from Aspergillus niger; assay: Cellulase assay: release of C1PNP (absorbance 400 nm) from end-blocked substrates, with and without β-glucosidase; assay type: biochemical; settings: 40° C., pH 4.5; absorbance 400 nm vs. time; FIGS. 2a-2b
Procedure: FIGS. 2a-2b are graphs of absorbance (400 nm) vs. time, for the action of a cellulase from Aspergillus niger on. […] FIG. 2b shows_end-blocked 2-chloro-4-nitrophenyl cellotriose (BC1PNP-G3) (700 milli-International Units per assay) at 40° C. and pH 4.5 in the presence and the absence of β-glucosidase using an assay of the invention. […] Note: One International Unit of enzyme activity as defined is the amount of enzyme required to release one micromole of reducing sugar equivalents per minute from carboxymethyl cellulose 4M (CMC-4M) (10 mg/mL) in 100 mM sodium acetate buffer (pH 4.5).
as §1
Add an aliquot (0.1 mL) of the substrate solution to the bottom of a 16×120 mm glass test tube, followed by 0.05 mL of pure β-glucosidase (Second embodiment only). […] Mix the tube contents and measure the absorbance at 400 nm against a reaction blank.

Row | Substance | sensitivity of the assay (rate of release of C1PNP) in the presence vs absence of β-glucosidase [1] | sensitivity of the assay (rate of release of C1PNP) in the presence vs absence of β-glucosidase [2] | rate of hydrolysis by Trichoderma cellulase (comparison of substrates) ([1]; absence of added β-glucosidase, 1500 milli-International Units per assay, FIG. 4)
1 | end-blocked 2-chloro-4-nitrophenyl cellobiose [BC1PNP-G2] | same sensitivity of the assay; also recorded: the same result is seen | same sensitivity of the assay; also recorded: no increase in the colour formed | 
2 | end-blocked p-nitrophenyl cellobiose [BPNP-G2] |  |  | slower rate than BC1PNP-G2
3 | end-blocked 2-chloro-4-nitrophenyl cellotriose [BC1PNP-G3] | greater sensitivity of the assay in the presence of added β-glucosidase | same sensitivity of the assay; also recorded: no increase in the colour formed | 
